Results on 28 compounds are retold here after publication PMC8286840, “Identifying SARS-CoV-2 antiviral compounds by screening for small molecule inhibitors of Nsp3 papain-like protease” (Biochemical Journal, 2021).

Where a name gives a salt, the structure may show the parent alone. Read-outs that look alike come from different tables or passages of the source.

For test [1], the target named is T1, SARS-CoV-2 PLpro (nsp3 1564–1878) (Severe acute respiratory syndrome coronavirus 2, UniProt P0DTD1). The test can be described thus: biochemical. Particulars: high concentration screen, read-out: % of control remaining. More on the design: FRET-quenched peptide (Pro3) cleavage by PLpro, 10 min pre-incubation, slope over 20 min, normalised to no-compound control.

The target in test [2] is T1, SARS-CoV-2 PLpro (nsp3 1564–1878). The test can be described thus: biochemical. Details: FRET-quenched peptide (Pro3) cleavage by PLpro, 10 min pre-incubation, slope over 20 min, normalised to no-compound control. Particulars: low concentration screen, read-out: % of control remaining.

Consider `NC[C@H]1O[C@H](O[C@H]2[C@H](O)[C@@H](O[C@H]3O[C@H](CO)[C@@H](O)[C@H](N)[C@H]3O)[C@H](N)C[C@@H]2N)[C@H](N)C[C@@H]1O` [Tobramycin (free base)], for which the remaining activity at 3.75 µM in test [1] (Well no.=1960) amounted to 95.9%. The remaining activity at 1.25 µM in test [2] (Well no.=1960) was found to be 96.2%.
As for `CS(=O)(=O)CCNCc1ccc(-c2ccc3ncnc(Nc4ccc(OCc5cccc(F)c5)c(Cl)c4)c3c2)o1` [Lapatinib], in test [1] (Well no.=2983), the remaining activity at 3.75 µM was 92.8%. In addition, the remaining activity at 1.25 µM in test [2] (Well no.=2983) came to 94.8%.
As to `O=C1[C@@H]2[C@H]3CC[C@H](C3)[C@@H]2C(=O)N1C[C@@H]1CCCC[C@H]1CN1CCN(c2nsc3ccccc23)CC1` [Lurasidone HCl], in test [1] (Well no.=4891), the remaining activity at 3.75 µM stood at 98%. The remaining activity at 1.25 µM in test [2] (Well no.=4891) turned out to be 99.3%.
Turning to `COC(=O)/C(=C1/OC(=O)C(c2ccccc2)=C1O)c1ccccc1` [Vulpinic acid], the remaining activity at 3.75 µM in test [1] (Well no.=3513) worked out at 104%. For the same compound, the remaining activity at 1.25 µM in test [2] (Well no.=3513) was 102%.
As to `CC1(C)CN2C(CSC(=NC3CCCCC3)NC3CCCCC3)=CSC2=N1` [IT1t (dihydrochloride)], the remaining activity at 3.75 µM in test [1] (Well no.=6942) worked out at 93.3%; in test [1] (Well no.=8463) it was 106%. Moreover, the remaining activity at 1.25 µM amounted to 94.3% in test [2] (Well no.=6942) and 107% in test [2] (Well no.=8463).
As for `CNC(=O)[C@H]1O[C@@H](n2cnc3c(NCc4cccc(I)c4)nc(Cl)nc32)[C@H](O)[C@@H]1O` [Namodenoson], in test [1] (Well no.=8451), the remaining activity at 3.75 µM worked out at 104%. Further, in test [2] (Well no.=8451), the remaining activity at 1.25 µM came out at 104%.
Regarding `C[C@@H]1O[C@@H](O[C@H]2C[C@@H](O)[C@]3(CO)[C@H]4[C@H](O)C[C@]5(C)[C@@H](C6=CC(=O)OC6)CC[C@]5(O)[C@@H]4CC[C@]3(O)C2)[C@H](O)[C@H](O)[C@H]1O` [Ouabain], the remaining activity at 3.75 µM in test [1] (Well no.=1088) was 94.6%. For the same compound, the remaining activity at 1.25 µM in test [2] (Well no.=1088) is 93.1%.
In the case of `CC(=O)NCCc1c[nH]c2ccc(O)cc12` [N-Acetyl-5-hydroxytryptamine], the remaining activity at 3.75 µM in test [1] (Well no.=201) was determined as 103%. In test [2] (Well no.=201), the remaining activity at 1.25 µM was determined as 102%.
Consider `Cc1c(-c2ccc(N3CCc4cccc(C(=O)Nc5nc6ccccc6s5)c4C3)nc2C(=O)O)cnn1CC12CC3CC(CC(C3)C1)C2` [A-1331852], for which the remaining activity at 3.75 µM in test [1] (Well no.=6592) turned out to be 93.5%. Further, the remaining activity at 1.25 µM in test [2] (Well no.=6592) is 102%.
Turning to `CC(C)NCC(O)COc1ccc(CCOCC2CC2)cc1` (stereo not drawn) [Betaxolol.HCl], the remaining activity at 3.75 µM in test [1] (Well no.=1735) came to 99.8%. Moreover, the remaining activity at 1.25 µM in test [2] (Well no.=1735) was 99.1%.
On to `COc1cc(-c2oc3cc(O)ccc3c(=O)c2O)ccc1O` [Geraldol], for which the remaining activity at 3.75 µM in test [1] (Well no.=3512) was 102%. Further, the remaining activity at 1.25 µM in test [2] (Well no.=3512) came out at 98.4%.
As for `Cc1ccc(Cl)c(Nc2ccccc2C(=O)O)c1Cl` [Meclofenamic acid sodium], the remaining activity at 3.75 µM in test [1] (Well no.=784) is 103%. Also, in test [2] (Well no.=784), the remaining activity at 1.25 µM turned out to be 103%.
Turning to `C[C@H]1OC[C@@H](C[N+](C)(C)C)O1` [(+)-cis-Dioxolane iodide], the remaining activity at 3.75 µM in test [1] (Well no.=579) was 100%. Further, the remaining activity at 1.25 µM in test [2] (Well no.=579) came out at 103%.
Turning to `CC(C)c1cccc(=O)c(O)c1` [Hinokitiol], the remaining activity at 3.75 µM in test [1] (Well no.=3893) amounted to 103%. Besides, in test [2] (Well no.=3893), the remaining activity at 1.25 µM came to 105%.
As for `COc1cc2cc(c1Cl)N(C)C(=O)C[C@H](OC(=O)[C@H](C)N(C)C(=O)CCSC1CC(=O)N(CC3CCC(C(=O)ON4C(=O)CCC4=O)CC3)C1=O)[C@]1(C)O[C@H]1[C@H](C)[C@@H]1C[C@@](O)(NC(=O)O1)[C@H](OC)/C=C/C=C(\C)C2` (stereo partly drawn) [SMCC-DM1], the remaining activity at 3.75 µM in test [1] (Well no.=8216) was found to be 96.4%. In addition, the remaining activity at 1.25 µM in test [2] (Well no.=8216) came out at 100%.
Turning to `NC(=O)[C@H](Cc1ccccc1)NC(=O)[C@H](Cc1c[nH]c2ccccc12)NC(=O)[C@@H]1CCCN1C(=O)[C@@H](N)Cc1ccc(O)cc1` [Endomorphin 1], in test [1] (Well no.=7901), the remaining activity at 3.75 µM is 97.8%. In addition, the remaining activity at 1.25 µM in test [2] (Well no.=7901) came out at 102%.
`CC[C@]1(O)C[C@H]2CN(CCc3c([nH]c4ccccc34)[C@@](C(=O)OC)(c3cc4c(cc3OC)N(C=O)[C@H]3[C@@](O)(C(=O)OC)[C@H](OC(C)=O)[C@]5(CC)C=CCN6CC[C@]43[C@@H]65)C2)C1` [Vincristine sulfate]: the remaining activity at 3.75 µM came to 97.6% in test [1] (Well no.=1194) and 105% in test [1] (Well no.=3226). In addition, the remaining activity at 1.25 µM worked out at 97.3% in test [2] (Well no.=1194), 104% in test [2] (Well no.=2035) and 102% in test [2] (Well no.=3226).
With `CC(=O)O[C@@H]1[C@@H](OC(C)=O)[C@@H](O)[C@H](Oc2c(-c3ccc(O)cc3)oc3cc(O)cc(O)c3c2=O)O[C@H]1C` [RSK Inhibitor, SL0101], the remaining activity at 3.75 µM in test [1] (Well no.=2635) is 97.4%. The remaining activity at 1.25 µM in test [2] (Well no.=2635) is 95.6%.
Turning to `Nc1ncnc2c1nc(N)n2[C@@H]1O[C@H](CO)[C@@H](O)[C@H]1O` [(2R,3R,4S,5R)-2-(6,8-diamino-9H-purin-9-yl)-5-(hydroxymethyl)tetrahydrofuran-3,4-diol], the remaining activity at 3.75 µM in test [1] (Well no.=5532) was determined as 105%. The remaining activity at 1.25 µM in test [2] (Well no.=5532) was 106%.
Consider `Nc1ccn([C@@H]2O[C@H](CO)[C@@H](O)C2(F)F)c(=O)n1` [Gemcitabine (hydrochloride)], for which the remaining activity at 3.75 µM in test [1] (Well no.=8056) is 100%. The remaining activity at 1.25 µM in test [2] (Well no.=8056) was determined as 96.9%.
For the compound `Cc1c[nH]c(/C=C2\C(=O)Nc3ccccc32)c1CCC(=O)O` [SU-5402], in test [1] (Well no.=3037), the remaining activity at 3.75 µM came out at 95.9%. Further, in test [2] (Well no.=3037), the remaining activity at 1.25 µM is 96.3%.
Take `O=c1cc(-c2cccc3c2Sc2ccccc2S3)oc(N2CCOCC2)c1` [KU 55933 - 2-(4-Morpholinyl)-6-(1-thianthrenyl)-4H-pyran-4-one]: the remaining activity at 3.75 µM in test [1] (Well no.=2438) is 103%. Further, in test [2] (Well no.=2438), the remaining activity at 1.25 µM is 101%.
For the compound `O=C(Nc1cccc(Nc2nccc(Nc3cccc(C(F)(F)F)c3)n2)c1)C1CC1` [Aurora Kinase Inhibitor III], the remaining activity at 3.75 µM in test [1] (Well no.=2326) is 102%; in test [1] (Well no.=2659) it was 94%. For the same compound, the remaining activity at 1.25 µM came to 105% in test [2] (Well no.=2326) and 95.7% in test [2] (Well no.=2659).
For the compound `COC(=O)N(C)c1c(N)nc(-c2nn(Cc3ccccc3F)c3ncccc23)nc1N` [Riociguat], the remaining activity at 3.75 µM in test [1] (Well no.=6654) was determined as 108%. In addition, in test [2] (Well no.=6654), the remaining activity at 1.25 µM stood at 107%.
With `COc1nc(OCc2cccc(-c3ccccc3)c2C)ccc1CNCCN` [N-deacetylated BMS-202], the remaining activity at 3.75 µM in test [1] (Well no.=8458) worked out at 100%. Also, the remaining activity at 1.25 µM in test [2] (Well no.=8458) worked out at 102%.
Consider `CC1=C(C(=O)OC(C)C)C(c2cccc([N+](=O)[O-])c2)C(C(=O)OC2CN(C(c3ccccc3)c3ccccc3)C2)=C(N)N1` (stereo not drawn) [Azelnidipine], for which the remaining activity at 3.75 µM in test [1] (Well no.=5275) was 93.3%. Besides, the remaining activity at 1.25 µM in test [2] (Well no.=5275) stood at 97.2%.
Turning to `CCn1c(-c2nonc2N)nc2c(C#CC(C)(C)O)ncc(OC[C@H]3CCCNC3)c21` [GSK690693], the remaining activity at 3.75 µM in test [1] (Well no.=3041) came out at 94.4%. For the same compound, in test [2] (Well no.=3041), the remaining activity at 1.25 µM worked out at 97.7%.
Consider `COc1cc(CCC(=O)CC(=O)CCc2ccc(O)c(OC)c2)ccc1O` [Tetrahydrocurcumin], for which, in test [1] (Well no.=6199), the remaining activity at 3.75 µM is 107%. In addition, in test [2] (Well no.=6199), the remaining activity at 1.25 µM turned out to be 104%.
